# Source: ChEMBL document CHEMBL1909046, “DrugMatrix in vitro pharmacology data”
# Columns and labels:
# [1] = molecular target: Tyrosine-protein kinase Lck (Homo sapiens, UniProt P06239); test: DRUGMATRIX: Protein Tyrosine Kinase, LCK enzyme inhibition (substrate: Poly(Glu:Tyr)); format: cell-based, Insect cells; settings: insect cells; Not Active = under 50% inhibition at 10 µM
# [2] = molecular target: Matrix metalloproteinase-9 (Homo sapiens, UniProt P14780); format: cell-based;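 also: inhibition of isolated MMP-9 enzyme activity toward a synthetic peptide substrate, from the DrugMatrix protease screening panel; in other assays of this panel Not Active means under 50% inhibition at 10 µM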
# Matrix metalloproteinase-9, sequence (P14780 whole entry): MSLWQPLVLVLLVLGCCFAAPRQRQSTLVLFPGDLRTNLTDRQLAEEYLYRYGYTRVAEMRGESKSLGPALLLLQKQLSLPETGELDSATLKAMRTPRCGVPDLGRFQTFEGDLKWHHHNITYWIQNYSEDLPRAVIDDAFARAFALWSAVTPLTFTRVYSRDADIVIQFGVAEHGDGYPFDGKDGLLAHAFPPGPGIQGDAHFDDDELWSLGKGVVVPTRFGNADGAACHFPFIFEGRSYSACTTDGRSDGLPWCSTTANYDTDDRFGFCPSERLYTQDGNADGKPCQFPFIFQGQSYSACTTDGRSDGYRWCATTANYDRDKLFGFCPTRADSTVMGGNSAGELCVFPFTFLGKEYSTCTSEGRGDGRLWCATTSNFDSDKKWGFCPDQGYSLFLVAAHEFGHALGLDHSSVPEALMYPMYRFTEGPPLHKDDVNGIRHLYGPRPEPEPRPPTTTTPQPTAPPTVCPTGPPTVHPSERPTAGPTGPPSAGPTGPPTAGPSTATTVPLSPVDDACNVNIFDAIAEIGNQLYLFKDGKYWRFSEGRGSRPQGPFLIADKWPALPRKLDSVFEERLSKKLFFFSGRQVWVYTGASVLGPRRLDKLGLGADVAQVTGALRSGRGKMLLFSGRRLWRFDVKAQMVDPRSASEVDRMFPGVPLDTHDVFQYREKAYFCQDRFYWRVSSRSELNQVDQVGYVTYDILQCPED
# [3] = molecular target: T1, 5-hydroxytryptamine receptor 1A (Rattus norvegicus, UniProt P19327); format: cell membranes, CHO-K1, Membrane; also: in other assays of this panel Not Active means under 50% inhibition at 10 µM
# T1 sequence (P19327 whole entry): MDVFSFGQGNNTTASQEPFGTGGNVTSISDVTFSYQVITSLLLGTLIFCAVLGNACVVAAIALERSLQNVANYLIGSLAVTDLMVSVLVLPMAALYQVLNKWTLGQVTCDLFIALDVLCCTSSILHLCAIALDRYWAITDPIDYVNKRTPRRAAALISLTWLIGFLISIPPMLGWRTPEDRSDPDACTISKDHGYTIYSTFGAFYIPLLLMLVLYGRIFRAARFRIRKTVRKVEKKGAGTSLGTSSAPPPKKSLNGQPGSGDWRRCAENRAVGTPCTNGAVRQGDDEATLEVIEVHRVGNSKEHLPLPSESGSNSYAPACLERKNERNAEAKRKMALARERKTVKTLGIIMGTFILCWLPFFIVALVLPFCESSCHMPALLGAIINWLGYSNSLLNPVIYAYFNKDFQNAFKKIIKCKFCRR
# [4] = DRUGMATRIX: Sigma2 radioligand binding (ligand: [3H] Ifenprodil); format: cell membranes, Rattus norvegicus, Wistar, Brain, Membrane; settings: Not Active = under 50% inhibition at 10 µM
# [5] = DRUGMATRIX: Imidazoline I2, Central radioligand binding (ligand: [3H] Idazoxan); format: cell membranes, Rattus norvegicus, Wistar, Cerebral cortex, Membrane; settings: Not Active = under 50% inhibition at 10 µM
# [6] = molecular target: Receptor tyrosine-protein kinase erbB-2 (Homo sapiens, UniProt P04626); format: cell-based; settings: insect cells;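 also: inhibition of HER2 kinase enzyme activity, measured with Poly(Glu:Tyr) as the phosphorylation substrate; in other assays of this panel Not Active means under 50% inhibition at 10 µM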
# Tyrosine-protein kinase Lck, sequence (P06239 whole entry): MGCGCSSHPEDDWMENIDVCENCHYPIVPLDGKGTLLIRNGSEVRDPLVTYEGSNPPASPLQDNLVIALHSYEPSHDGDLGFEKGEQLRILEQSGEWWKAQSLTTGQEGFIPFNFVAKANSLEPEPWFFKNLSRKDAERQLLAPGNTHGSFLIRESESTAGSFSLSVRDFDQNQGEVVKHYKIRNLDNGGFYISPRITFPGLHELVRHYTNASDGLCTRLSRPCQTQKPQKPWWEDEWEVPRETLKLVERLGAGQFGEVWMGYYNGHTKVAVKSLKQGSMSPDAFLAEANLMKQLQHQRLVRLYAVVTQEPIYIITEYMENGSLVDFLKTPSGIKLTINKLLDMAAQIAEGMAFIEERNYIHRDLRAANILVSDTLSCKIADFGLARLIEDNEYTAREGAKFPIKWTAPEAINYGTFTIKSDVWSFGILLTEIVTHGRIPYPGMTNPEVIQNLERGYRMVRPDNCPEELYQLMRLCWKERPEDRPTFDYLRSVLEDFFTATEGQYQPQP
Molecule,IC50 [1],IC50 [2],IC50 ([3]; cho-k1),IC50 [4],Ki [4],IC50 [5],Ki [5],IC50 [6],Ki [1],Ki [2],Ki ([3]; cho-k1),Ki [6],IC50 ([4]; read-out: IC50),Ki ([4]; read-out: Ki),IC50 ([3]; read-out: IC50),Ki ([3]; read-out: Ki),IC50 ([5]; read-out: IC50),Ki ([5]; read-out: Ki)
CO[C@H]1O[C@@H]2O[C@@]3(C)CC[C@H]4[C@H](C)CC[C@@H]([C@H]1C)[C@@]24OO3,Not Active,Not Active,Not Active,Not Active,Not Active,Not Active,Not Active,Not Active,,,,,,,,,,
C[C@@H]1[C@H](O)[C@@H](C)/C=C/C=C/C=C/C=C/C=C/C=C/C=C/[C@H](O[C@@H]2O[C@H](C)[C@@H](O)[C@H](N)[C@@H]2O)C[C@@H]2O[C@](O)(C[C@@H](O)C[C@@H](O)[C@H](O)CC[C@@H](O)C[C@@H](O)CC(=O)O[C@H]1C)C[C@H](O)[C@H]2C(=O)O [AMPHOTERICIN B],Not Active,Not Active,Not Active,Not Active,Not Active,Not Active,Not Active,Not Active,,,,,,,,,,
Oc1ncnc2[nH]ncc12 [ALLOPURINOL],Not Active,Not Active,Not Active,Not Active,Not Active,Not Active,Not Active,Not Active,,,,,,,,,,
COc1cc([C@@H]2c3cc4c(cc3[C@H](O)[C@H]3COC(=O)[C@H]23)OCO4)cc(OC)c1OC [PODOFILOX],Not Active,Not Active,Not Active,Not Active,Not Active,Not Active,Not Active,Not Active,,,,,,,,,,
NC(=O)CN1CCCC1=O,Not Active,Not Active,Not Active,Not Active,Not Active,Not Active,Not Active,Not Active,,,,,,,,,,
POVIDONE,Not Active,Not Active,Not Active,Not Active,Not Active,Not Active,Not Active,Not Active,Not Active,Not Active,Not Active,Not Active,,,,,,
Cc1c(N)nc([C@H](CC(N)=O)NC[C@H](N)C(N)=O)nc1C(=O)N[C@H](C(=O)N[C@H](C)[C@@H](O)[C@H](C)C(=O)N[C@H](C(=O)NCCc1nc(-c2nc(C(=O)NCCC[S+](C)C)cs2)cs1)[C@@H](C)O)[C@@H](O[C@@H]1O[C@@H](CO)[C@@H](O)[C@H](O)[C@@H]1O[C@H]1O[C@H](CO)[C@@H](O)[C@H](OC(N)=O)[C@@H]1O)c1c[nH]cn1.[Br-] [BLEOMYCIN A2],Not Active,Not Active,Not Active,Not Active,Not Active,Not Active,Not Active,Not Active,,,,,,,,,,
CN(Cc1cc(Br)cc(Br)c1N)C1CCCCC1 [BROMHEXINE],Not Active,Not Active,Not Active,,,Not Active,Not Active,Not Active,,,,,59 nM,36 nM,,,,
Nc1ccc(Cc2ccc(N)cc2)cc1,Not Active,Not Active,Not Active,Not Active,Not Active,Not Active,Not Active,Not Active,,,,,,,,,,
C[C@]12CC[C@@H](O)C[C@@H]1CC[C@@H]1[C@@H]2CC[C@]2(C)C(=O)CC[C@@H]12 [ANDROSTERONE],Not Active,,Not Active,Not Active,Not Active,Not Active,Not Active,Not Active,,Not Active,,,,,,,,
O=C(O)c1ccccc1 [BENZOIC ACID],Not Active,Not Active,Not Active,Not Active,Not Active,Not Active,Not Active,Not Active,,,,,,,,,,
CC(=O)Nc1ccc2c(c1)Cc1ccccc1-2 [2-ACETYLAMINOFLUORENE],Not Active,Not Active,Not Active,Not Active,Not Active,Not Active,Not Active,Not Active,,,,,,,,,,
C[C@H](C(=O)O)c1ccc2oc(-c3ccc(F)cc3)nc2c1 [FLUNOXAPROFEN],Not Active,Not Active,Not Active,Not Active,Not Active,Not Active,Not Active,Not Active,,,,,,,,,,
C[C@H]1C[C@H]2[C@@H]3CCC4=CC(=O)C=C[C@]4(C)[C@@]3(F)[C@@H](O)C[C@]2(C)[C@@]1(O)C(=O)CO [BETAMETHASONE],Not Active,Not Active,Not Active,Not Active,Not Active,Not Active,Not Active,Not Active,,,,,,,,,,
CN(CCOc1ccc(C[C@H](Nc2ccccc2C(=O)c2ccccc2)C(=O)O)cc1)c1ccccn1,Not Active,Not Active,Not Active,Not Active,Not Active,Not Active,Not Active,Not Active,,,,,,,,,,
NS(=O)(=O)c1cc(C(=O)O)c(NCc2ccco2)cc1Cl [FUROSEMIDE],Not Active,Not Active,Not Active,Not Active,Not Active,Not Active,Not Active,Not Active,,,,,,,,,,
CCN1CCN(c2cc3c(cc2F)c(=O)c(C(=O)O)cn3C2CC2)CC1 [ENROFLOXACIN],Not Active,Not Active,Not Active,Not Active,Not Active,Not Active,Not Active,Not Active,,,,,,,,,,
C[N+](C)(C)CCOP(=O)([O-])OC[C@H](O)CO,Not Active,Not Active,Not Active,Not Active,Not Active,Not Active,Not Active,Not Active,,,,,,,,,,
"O=C(Nc1ccc(Cl)c(Cl)c1)c1cc(Cl)cc(Cl)c1O [3,3',4',5-TETRACHLOROSALICYLANILIDE]",Not Active,Not Active,Not Active,Not Active,Not Active,Not Active,Not Active,Not Active,,,,,,,,,,
O=C(O)COC(=O)Cc1ccccc1Nc1c(Cl)cccc1Cl [ACECLOFENAC],Not Active,Not Active,Not Active,Not Active,Not Active,Not Active,Not Active,Not Active,,,,,,,,,,
O=c1[nH]c2ccccc2c2ccccc12,Not Active,Not Active,Not Active,Not Active,Not Active,Not Active,Not Active,Not Active,,,,,,,,,,
C=CCN1CC[C@]23c4c5ccc(O)c4O[C@H]2/C(=N/N=C2\CC[C@@]4(O)[C@H]6Cc7ccc(O)c8c7[C@@]4(CCN6CC=C)[C@H]2O8)CC[C@@]3(O)[C@H]1C5 [NALOXONAZINE],Not Active,Not Active,Not Active,Not Active,Not Active,Not Active,Not Active,Not Active,,,,,,,,,,
ClC1=C(Cl)[C@]2(Cl)[C@@H]3[C@@H]4C[C@@H]([C@H]5O[C@@H]45)[C@@H]3[C@@]1(Cl)C2(Cl)Cl [DIELDRIN],Not Active,Not Active,Not Active,Not Active,Not Active,Not Active,Not Active,Not Active,,,,,,,,,,
COPPER(II) OXIDE,Not Active,Not Active,Not Active,Not Active,Not Active,Not Active,Not Active,Not Active,Not Active,Not Active,Not Active,Not Active,,,,,,
CCO [ALCOHOL],Not Active,Not Active,Not Active,Not Active,Not Active,Not Active,Not Active,Not Active,,,,,,,,,,
CC(N)Cc1c[nH]c2ccc(OCc3cccs3)cc12 (configuration not stated) [BW-723C86],Not Active,Not Active,,Not Active,Not Active,Not Active,Not Active,Not Active,,,,,,,1130 nM,644 nM,,
CCN(CCO)CCCC(C)Nc1ccnc2cc(Cl)ccc12 (configuration not stated) [HYDROXYCHLOROQUINE],Not Active,Not Active,Not Active,Not Active,Not Active,,,Not Active,,,,,,,,,479 nM,319 nM
c1ccc2sc(SSc3nc4ccccc4s3)nc2c1 [BENZOTHIAZYL DISULFIDE],Not Active,Not Active,,Not Active,Not Active,Not Active,Not Active,Not Active,,,,,,,747 nM,427 nM,,
CC(C)Cc1ccc([C@H](C)C(=O)O)cc1 [DEXIBUPROFEN],Not Active,Not Active,Not Active,Not Active,Not Active,Not Active,Not Active,Not Active,,,,,,,,,,
